Activity calls are given as the source filed them.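 How the source made its calls: active means maximal percent inhibition of the deubiquitinase OTUD3 of at least 30% across the tested doses; inactive means the rest.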
Target: OTU domain-containing protein 3 (Homo sapiens) (UniProt Q5T2D3)
Assay: Validation of screening hits, potency titration, in vitro enzymatic, OTU domain-containing protein 3 DUB inhibitors (AID 1645868)
Settings: purified OTUD3, ubiquitin-rhodamine cleavage fluorescence, 2 h

Chain of OTU domain-containing protein 3 (Homo sapiens) (Q5T2D3 whole entry, looked up, the tested form may be a part): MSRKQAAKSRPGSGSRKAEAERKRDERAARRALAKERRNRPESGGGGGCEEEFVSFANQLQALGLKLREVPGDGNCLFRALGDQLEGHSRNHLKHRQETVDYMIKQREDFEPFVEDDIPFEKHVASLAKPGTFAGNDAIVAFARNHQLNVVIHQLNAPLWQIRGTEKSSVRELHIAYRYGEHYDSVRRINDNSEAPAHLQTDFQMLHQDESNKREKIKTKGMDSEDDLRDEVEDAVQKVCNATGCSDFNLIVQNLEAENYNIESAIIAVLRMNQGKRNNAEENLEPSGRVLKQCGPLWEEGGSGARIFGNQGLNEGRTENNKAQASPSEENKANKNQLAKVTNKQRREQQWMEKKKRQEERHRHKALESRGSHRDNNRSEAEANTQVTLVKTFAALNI

Structure (SMILES)	IC50
Oc1ccc(Br)cc1CNc1ccc(F)cc1	> 50 µM (inactive)
CC(C)Cc1nc2oc3c(N(C)CCO)ncnc3c2c2c1CCC2	> 50 µM (inactive)
CC(C)N1CC[C@@H]2[C@H](C1)CN2C(=O)Nc1cccc(F)c1	> 50 µM (inactive)
O=C(CCCCn1c(=O)c2ccccc2n(Cc2ccccc2F)c1=O)NCCc1ccccc1	17 µM
CCCCCCCc1cc(O)cc(O)c1	> 50 µM (inactive)
COc1ccc(-n2nnc3c(SCC(=O)Nc4cc(C)on4)ncnc32)cc1	> 50 µM (inactive)
Cc1ccc(CSC2=NS(=O)(=O)c3ccccc3N2)cc1	> 50 µM (inactive)
Cc1ccc(NC(=O)c2ccn(COc3ccc(F)cc3)n2)nc1	> 50 µM (inactive)
O=C(Nc1cccc(-c2nc3ccccc3[nH]2)c1)c1cc2ccccc2oc1=O	22 µM
COc1ccc(C)cc1NC(=O)COc1ccc2c(c1)OCO2	> 50 µM (inactive)
O=C(NCc1ccccc1)c1ccc(-c2ccc(N3CCCC3)nn2)cc1	> 50 µM (inactive)
c1ccc(CCN2CCc3nc4cccnc4cc3C2)nc1	> 50 µM (inactive)
c1ccc2c(c1)ccc1nnc(-c3ccc4c(c3)OCO4)n12	> 50 µM (inactive)
COc1ccc(C(=O)CSc2nnc(-c3cc4cccc(OC)c4o3)n2C)cc1OC	> 50 µM (inactive)
Cc1ccc(-c2ncc(C(=O)NCc3cccc(C)c3)c(-c3ccncc3)n2)cc1	> 50 µM (inactive)
O=C(CSc1ncnc2c1sc1cccc(F)c12)N1CCCCCC1	> 50 µM (inactive)
c1ccc(-n2nnc(-c3noc(-c4ccccn4)n3)c2-c2ccncc2)cc1	38.7 µM
Nc1ncnc2c1ncn2[C@@H]1O[C@H](CO)C[C@@H]1O	33.4 µM
CC(=O)N1Cc2ccccc2CC2(CCCN(CC3CCOCC3)C2)C1 (stereo unspecified)	> 50 µM (inactive)
Cc1ccccc1Cn1ccc(NC(=O)c2noc(C)c2[N+](=O)[O-])n1	> 50 µM (inactive)

Structure (SMILES)	IC50
COc1ccc(-c2cc3nc([C@H](C)NC(=O)Cc4cccc(F)c4)nn3cn2)cc1	15.8 µM
Cc1ccc(C(=O)NCc2ccc(C(=O)Nc3cccc(C)c3)o2)cc1	> 50 µM (inactive)
O=C(c1ccc(COc2cccc3ccccc23)o1)N1CCC(Cc2ccccc2)CC1	> 50 µM (inactive)
COc1cc(-c2ccno2)ccc1S(=O)(=O)Nc1ccccc1Cl	> 50 µM (inactive)
O=C(NC1(O)C(=O)c2ccccc2C1=O)c1cccc2c1-c1ccccc1C2=O	35.1 µM
O=C(NC1CCN(Cc2ccccc2)CC1)c1[nH]nc2c1CCc1ccccc1-2	> 50 µM (inactive)
CCOC(=O)c1ccc(S(=O)(=O)N2CCC(C(=O)OC(C)C(=O)Nc3cccc([N+](=O)[O-])c3)CC2)cc1 (stereo unspecified)	17.3 µM
COc1cccc(-c2nc(C(N)=O)c3[nH]c(=O)n(-c4cccc(Cl)c4)c3n2)c1OC	> 50 µM (inactive)
COc1cccc(C(=O)Nc2ccc(-n3cnnn3)cc2)c1	> 50 µM (inactive)
O=C(c1ccc2cc[nH]c2c1)N1CCC(Nc2cccnc2)C1 (stereo unspecified)	> 50 µM (inactive)
Cc1ccc2[nH]c(=O)c(CN(CC3COCCO3)S(=O)(=O)c3ccc(F)cc3)cc2c1 (stereo unspecified)	18.9 µM
O=C(c1ccc2occc2c1)N1CCC(S(=O)(=O)c2ccc(-c3ccco3)cc2)CC1	> 50 µM (inactive)
C[C@@H](C(=O)NCc1ccc(F)cc1)N1C(=O)N2CCc3c([nH]c4ccccc34)[C@@]2(C)C1=O	24.1 µM
COc1ccc(CC(=O)Nc2nc(-c3ccco3)c(-c3ccco3)s2)cc1	> 50 µM (inactive)
COc1cc(C)c(NC(=O)c2cc(-c3ccccc3)c(N3CCOCC3)s2)cc1OC	> 50 µM (inactive)
CCCc1nc2sc3c(N(CC)CC)ncnc3c2c2c1CCC2	> 50 µM (inactive)
COc1ccc(C(=O)N2CCCC3(C2)Nc2cccnc2NC3=NC2CCCC2)cn1 (stereo unspecified)	> 50 µM (inactive)
O=C(Cn1c(=O)n(-c2ccccc2)c(=O)c2ccc(C(=O)NCc3ccc4c(c3)OCO4)cc21)NCCC1=CCCCC1	34.4 µM
CCS(=O)(=O)c1ccccc1C(=O)Nc1ccc2sc(C)nc2c1	> 50 µM (inactive)
CC1=C(C)C(c2c(-c3ccc(C)cc3)[nH]c3ccccc23)N(C(C)(C)C)C1=O (stereo unspecified)	8.84 µM

Structure (SMILES)	IC50
CCOc1ccc(NC(=O)Cn2c(=O)n(CCCCCC(=O)NCc3ccc(F)cc3)c(=O)c3sccc32)cc1	2.67 µM
O=C(Nc1ccc(-c2cn3ccccc3n2)cc1)C1C=C2C=C(Br)C=CC2OC1=O (stereo unspecified)	> 50 µM (inactive)
Cc1nc(CN2CCn3c(Cn4cccn4)cnc3C2C)cs1 (stereo unspecified)	> 50 µM (inactive)
COc1ccccc1NS(=O)(=O)c1cccc(NC(=O)CCc2nc3ccccc3s2)c1	> 50 µM (inactive)
Cc1ccc(C(=O)NCCc2nc(-c3ccc4c(c3)OCO4)n[nH]2)cc1F	> 50 µM (inactive)
Cc1cc(Cl)c2c(c1)[C@]1(C(=O)N2)N2CCC[C@H]2[C@@H](C(=O)c2cc3ccccc3o2)[C@]12C(=O)Nc1ccccc12	> 50 µM (inactive)
O=C(Cc1ccccc1F)N1CCC2(CC1)CC1(CO2)Nc2ccccc2-n2cccc21 (stereo unspecified)	> 50 µM (inactive)
COc1ccc(CCNC(=O)c2noc3c2CCc2sccc2-3)cc1OC	> 50 µM (inactive)
COc1ccc(C(C(=O)NCc2ccccc2)N(C(=O)CCN2CCc3ccccc32)c2ccc(C)c(C)c2)cc1 (stereo unspecified)	> 50 µM (inactive)
Cc1ccc(NC(=O)c2ccc(N3CCOCC3)nn2)cc1F	> 50 µM (inactive)
Cc1ccc2c(C)nc(Nc3ncc4c(n3)CC(c3ccco3)CC4=O)nc2c1 (stereo unspecified)	0.168 µM
Cc1cc(C)n2nc(CNc3cccc(Cl)c3)nc2n1	> 50 µM (inactive)
CC1CCN(Cc2nnc(-c3cn(CC(=O)NC4CCCCC4)c4ccccc34)o2)CC1	> 50 µM (inactive)
COc1cc(O)c2c(=O)c(-c3ccc(O)cc3)coc2c1	> 50 µM (inactive)
CCOC(=O)C1CCN(C(=O)c2ccc3c(c2)NC(=O)C2CCCN32)CC1 (stereo unspecified)	> 50 µM (inactive)
COc1ccc(NC(=O)CN2CCN(c3ccc(C(C)=O)cc3)CC2)cc1S(=O)(=O)N1CCCCC1	> 50 µM (inactive)
CCCc1cc(=O)oc2cc(OCC(=O)NCc3ccc(OC)cc3)ccc12	36.2 µM
O=C(NCc1ccccc1Cl)C1CCCN(c2nc3ccsc3c(=O)s2)C1 (stereo unspecified)	> 50 µM (inactive)
CC(C)NS(=O)(=O)c1ccc(OCC(=O)N2CCC(Cc3ccccc3)CC2)cc1	> 50 µM (inactive)

Second part, the compound after the results:

IC50	Structure (SMILES)
34.2 µM	CC(OC(=O)c1ccc2c(c1)OCCO2)C(=O)NCC1CCCCC1 (stereo unspecified)
> 50 µM (inactive)	COc1ccc(-n2nnc(C(=O)Nc3ccc(F)cc3)c2C)cc1
> 50 µM (inactive)	Cc1ccc(S(=O)(=O)Nc2ccccc2SCCS(=O)(=O)c2ccc(Cl)cc2)cc1
> 50 µM (inactive)	CCn1cc(-c2nc(-c3ccccn3)no2)c(=O)c2cc(F)ccc21
19 µM	CCC(=O)Nc1ccccc1-c1nc2ccccc2n(CC(=O)Nc2cc(OC)ccc2OC)c1=O
> 50 µM (inactive)	COc1ccccc1NS(=O)(=O)c1ccc2oc(SCC(=O)c3ccccc3)nc2c1
> 50 µM (inactive)	CC(C)(C)c1ccc(C(=O)Nc2ccc(Oc3cccnc3)nc2)cc1
> 50 µM (inactive)	O=C(Nc1cccc(F)c1)c1ncoc1-c1ccco1
17.1 µM	O=S(=O)(c1cccc(F)c1)N1CCc2nc3ccccc3n2CC1
> 50 µM (inactive)	N#Cc1ccc(COC(=O)c2ccc3ccccc3n2)cc1
> 50 µM (inactive)	CCN1CCCC1CN(Cc1cc2cc(OC)ccc2[nH]c1=O)C(=O)NCc1ccccc1 (stereo unspecified)
> 50 µM (inactive)	Cc1ccc2nc(CNc3ccc(F)cc3C)cc(=O)n2c1
29.6 µM	O=C(CSc1nnc(CNC(=O)c2ccccc2F)o1)Nc1ccc(OC(F)(F)F)cc1
> 50 µM (inactive)	O=C(Nc1ccc2c(c1)OCCO2)C1CCN(C(=O)c2ccccc2)CC1
> 50 µM (inactive)	CN1CC2CN(C(=O)Nc3cccnc3)CCN2Cc2ccccc21 (stereo unspecified)
> 50 µM (inactive)	COc1ccc2c(c1)c(N1CCCC1=O)c(C(=O)NCc1cccc(OC)c1OC)n2C
> 50 µM (inactive)	O=c1ccc(-c2noc(Cc3c(F)cccc3Cl)n2)c[nH]1
> 50 µM (inactive)	COc1ccc(-c2nc(Cn3nnc(C(=O)Nc4ccc(C)cc4C)c3N)c(C)o2)cc1
> 50 µM (inactive)	Cc1cc(C)c(NC(=O)CSc2nc3nccnc3c(=O)n2Cc2ccccc2Cl)c(C)c1

IC50	Structure (SMILES)
> 50 µM (inactive)	Cc1nn(CC(=O)NCc2ccccc2F)c2ccccc12
> 50 µM (inactive)	O=S1(=O)NC(=NCCc2ccc(Cl)cc2Cl)c2ccccc21
24.1 µM	Cc1cccc(C(=O)Nc2cccc(SC(C(=O)Nc3ccc(O)c(C(=O)O)c3)c3ccccc3)c2)c1 (stereo unspecified)
35.5 µM	COc1ccc(NC(=O)CC(=O)c2ccc([N+](=O)[O-])cc2)cc1S(=O)(=O)Nc1ccc(Cl)cc1
> 50 µM (inactive)	Cc1nn(-c2nc3ccccc3[nH]2)c2c1C(c1cccs1)CC(=O)N2 (stereo unspecified)
> 50 µM (inactive)	CCOc1ccccc1NC(=O)COC(=O)C(c1ccccc1)c1ccccc1
> 50 µM (inactive)	COc1ccc(CCn2cnc3c4ccccc4n(C)c3c2=O)cc1OC
21.5 µM	O=C(COc1ccc2c(-c3ccccc3)cc(=O)oc2c1)Nc1cccnc1
> 50 µM (inactive)	COc1ccc(C(=O)Nc2ccc3c(c2)Sc2ncccc2C(=O)N3C)cn1
> 50 µM (inactive)	O=c1ccc(-c2noc(Cc3cccc(Cl)c3)n2)c[nH]1
> 50 µM (inactive)	CCN1CCN(C(=O)CCCN(c2ccccc2)S(C)(=O)=O)CC1
22.3 µM	COc1ccc(C(C(=O)NC2CCCCC2)N(C(=O)CCCC(=O)Nc2ccccn2)c2ccccc2C)cc1 (stereo unspecified)
> 50 µM (inactive)	C=C1CCC2[C@](C)(CCC[C@]2(C)C(=O)OC)[C@H]1CCc1ccoc1CNC(C)C (stereo partly specified)
> 50 µM (inactive)	CNC(=O)C1CN(C(=O)c2ccc(OC)cc2)CC12CCCC2 (stereo unspecified)
18.7 µM	COc1ccc(C(=O)Nc2nc3n(n2)C(c2ccccc2)CC(=O)N3)cc1 (stereo unspecified)
> 50 µM (inactive)	COc1cccc(C(=O)Oc2ccc3c(=O)c(-c4ccc(OC)c(OC)c4)coc3c2)c1
33.3 µM	Cc1nn(-c2cc(N3CCOCC3)ncn2)c(C)c1CCC(=O)Nc1ccc(C(C)C)cc1
26.5 µM	O=C(O)c1ccc(C2Cc3c([nH]c(=O)[nH]c3=O)O2)cc1 (stereo unspecified)

Source: PubChem BioAssay AID1645868 (Buhrlage Lab, Dana-Farber Cancer Institute and Novartis …, 2021)
